pKi: −log10 of the molar value. Numbered stars: 1 amine (or outer) side, 2 acyl side, 3 side chain; on linkers, the order of the positions; unused ones are H or OH. Square brackets hold non-standard residues; d marks the D form. Peptide text beside a SMILES is read from it. * marks the point of attachment. ξ: configuration not given here. 4Abz = Nc1ccc(C(=O)O)cc1; CO = O=C([*:1])[*:2]; ξV = CC(C)C(N)C(=O)O; NHPh = c1ccc(N*)cc1; ξP = O=C(O)C1CCCN1; CF3 = FC(F)(F)*
Columns and labels:
[1] = species on record: Mesocricetus auratus; experiment: Reduction in wet lung weight relative to the body weight in hamsters
[2] = molecular target: T1, Neutrophil elastase (Homo sapiens, UniProt P08246); experiment: Inhibitory activity against Human Neutrophil Elastase by HNE-catalyzed hydrolysis of MeO-Suc-Ala-Ala-Pro-Val-pNa
T1 sequence (P08246 whole entry): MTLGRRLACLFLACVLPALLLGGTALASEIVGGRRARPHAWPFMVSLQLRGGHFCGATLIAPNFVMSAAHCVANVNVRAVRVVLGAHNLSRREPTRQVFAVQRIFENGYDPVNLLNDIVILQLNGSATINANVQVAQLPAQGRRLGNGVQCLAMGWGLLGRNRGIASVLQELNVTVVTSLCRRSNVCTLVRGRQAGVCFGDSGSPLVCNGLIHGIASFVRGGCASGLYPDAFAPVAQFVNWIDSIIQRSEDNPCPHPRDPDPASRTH

[3] = tested on: Mesocricetus auratus; experiment: Oral administration at a dose of 37.5 mg/kg 30 min prior to HNE and reduction in the number of white blood cells was reported
[4] = tested on: Mesocricetus auratus; experiment: Oral administration at a dose of 37.5 mg/kg 30 min prior to HNE (100 mg/hamster) and reduction in the number of white blood cells was reported

Structure (SMILES) | pKi [2] | Lw/Bw [1] | Reduction [3] [%] | Reduction [4] [%]
CCCN(CC(=O)N[C@H](C(=O)N1CCC[C@H]1C(=O)N[C@H](C(=O)C(F)(F)F)C(C)C)C(C)C)C(C)=O (HELM PEPTIDE1{[ac].[CCCN(CC(=O)[*:2])[*:1]].V.P.V.[FC(F)(F)[*:1]]}$$$$V2.0) | 8.70 | 24 | 78 | –
CCOC(=O)c1ccc(/C=C/C(=O)N[C@H](C(=O)N2CCCC2C(=O)NC(C(=O)C(F)(F)F)C(C)C)C(C)C)cc1 (stereo partly specified) | 9.37 | -122 | – | -48
CC(C)[C@H](NC(=O)c1c[nH]cn1)C(=O)N1CCC[C@H]1C(=O)N[C@H](C(=O)C(F)(F)F)C(C)C | 7.20 | -42 | – | -267
CC(C)[C@H](NC(=O)c1ccc(O)c(O)c1)C(=O)N1CCC[C@H]1C(=O)N[C@H](C(=O)C(F)(F)F)C(C)C | 7.80 | -73 | – | -41
CC(C)[C@H](NC(=O)C(=O)O)C(=O)N1CCC[C@H]1C(=O)N[C@H](C(=O)C(F)(F)F)C(C)C | 6.09 | 2 | 38 | –
CC(C)[C@H](NC(=O)c1ccncc1)C(=O)N1CCC[C@H]1C(=O)N[C@H](C(=O)C(F)(F)F)C(C)C | 8.42 | -15 | – | -45
CC(C)[C@H](NC(=O)Oc1ccc(F)cc1)C(=O)N1CCC[C@H]1C(=O)N[C@H](C(=O)C(F)(F)F)C(C)C | 9.20 | 63 | – | -67
CC(C)C(NC(=O)C1CCCN1C(=O)[C@@H](NC(=O)c1cc(C(=O)O)cc(C(=O)O)c1)C(C)C)C(=O)C(F)(F)F (stereo partly specified) | 7.37 | -45 | – | -105
COc1ccc(C(=O)N[C@H](C(=O)N2CCCC2C(=O)NC(C(=O)C(F)(F)F)C(C)C)C(C)C)cc1OC (stereo partly specified) | 8.96 | 66 | 46 | –
CC(C)C(NC(=O)c1ccc(C(=O)NS(=O)(=O)c2ccc(Br)cc2)cc1)C(=O)N1CCC[C@H]1C(=O)N[C@H](C(=O)C(F)(F)F)C(C)C (stereo partly specified) | – | -0.5 | 30 | –
CC(C)C(NC(=O)C1CCCN1C(=O)[C@@H](NS(=O)(=O)C12CC3CC(CC(C3)C1)C2)C(C)C)C(=O)C(F)(F)F (stereo partly specified) | 8.92 | -36 | 61 | –
CC(C)[C@H](NC(=O)c1cccnc1)C(=O)N1CCC[C@H]1C(=O)N[C@H](C(=O)C(F)(F)F)C(C)C (HELM PEPTIDE1{[O=C(c1cccnc1)[*:2]].V.P.V.[FC(F)(F)[*:1]]}$$$$V2.0) | 8.11 | -6 | 23 | –
Cc1ccc(C(=O)N[C@H](C(=O)N2CCC[C@H]2C(=O)N[C@H](C(=O)C(F)(F)F)C(C)C)C(C)C)cc1C | 9.00 | 75 | 55 | –
CC(C)C(NC(=O)C1CCCN1C(=O)[C@@H](NS(=O)(=O)c1c(F)c(F)c(F)c(F)c1F)C(C)C)C(=O)C(F)(F)F (stereo partly specified) | 8.80 | -24 | 27 | –
CSc1ccc(C(=O)N[C@H](C(=O)N2CCCC2C(=O)NC(C(=O)C(F)(F)F)C(C)C)C(C)C)cc1 (stereo partly specified) | 8.64 | 20 | 36 | –
COC(=O)c1cc(C(=O)N[C@H](C(=O)N2CCCC2C(=O)NC(C(=O)C(F)(F)F)C(C)C)C(C)C)cc(C(=O)OC)c1 (stereo partly specified) | 7.96 | 6 | 6 | –
CC(C)[C@H](NC(=O)OCc1ccccc1)C(=O)N1CCC[C@H]1C(=O)N[C@H](C(=O)C(F)(F)F)C(C)C (HELM PEPTIDE1{[O=C(OCc1ccccc1)[*:2]].V.P.V.[FC(F)(F)[*:1]]}$$$$V2.0) | – | 53 | 38 | –
CC(=O)Oc1cc(OC(C)=O)cc(C(=O)N[C@H](C(=O)N2CCCC2C(=O)NC(C(=O)C(F)(F)F)C(C)C)C(C)C)c1 (stereo partly specified) | 7.22 | – | – | -12
CC(C)C(NC(=O)C1CCCN1C(=O)[C@@H](NC(=O)c1ccc(N(C)C)cc1)C(C)C)C(=O)C(F)(F)F (stereo partly specified) | 8.60 | 36 | 0 | –
CC(C)[C@H](NC(=O)C(F)(F)F)C(=O)N1CCC[C@H]1C(=O)N[C@H](C(=O)C(F)(F)F)C(C)C (HELM PEPTIDE1{[O=C(C(F)(F)F)[*:2]].V.P.V.[FC(F)(F)[*:1]]}$$$$V2.0) | 7.82 | 67 | 91 | –
CC(C)[C@H](NS(=O)(=O)C(F)(F)F)C(=O)N1CCC[C@H]1C(=O)N[C@H](C(=O)C(F)(F)F)C(C)C | 6.82 | 20 | 17 | –
COc1cccc(OC)c1C(=O)N[C@H](C(=O)N1CCCC1C(=O)NC(C(=O)C(F)(F)F)C(C)C)C(C)C (stereo partly specified) | 7.82 | 20 | 177 | –

Further lines, with some results ahead:

pKi [2] | Structure (SMILES) | Lw/Bw [1] | Reduction [3] [%] | Reduction [4] [%]
8.57 | CC(C)C(NC(=O)C1CCCN1C(=O)[C@@H](NS(=O)(=O)c1ccc2ccccc2c1)C(C)C)C(=O)C(F)(F)F (stereo partly specified) | – | 20 | –
8.00 | CC(C)C(NC(=O)C1CCCN1C(=O)[C@@H](NC(=O)Nc1ccc(C(=O)O)cc1)C(C)C)C(=O)C(F)(F)F (stereo partly specified) ({4Abz-CO}-Val-[ξP]-[ξV]-CF3) | -1 | 48 | –
8.77 | CC(C)C(NC(=O)C1CCCN1C(=O)[C@@H](NC(=O)c1cc2ccccc2cc1C(=O)O)C(C)C)C(=O)C(F)(F)F (stereo partly specified) | 23 | 53 | –
8.54 | CC(C)[C@H](NC(=O)c1ccc(F)cc1)C(=O)N1CCC[C@H]1C(=O)N[C@H](C(=O)C(F)(F)F)C(C)C | 44 | 22 | –
7.70 | CC(C)[C@H](NC(=O)c1ccccn1)C(=O)N1CCC[C@H]1C(=O)N[C@H](C(=O)C(F)(F)F)C(C)C | 8 | 44 | –
9.39 | CC(C)C(NC(=O)C1CCCN1C(=O)[C@@H](NC(=O)c1ccc(Oc2ccccc2)cc1)C(C)C)C(=O)C(F)(F)F (stereo partly specified) | 31 | 78 | –
8.17 | CC(C)[C@H](NC(=O)c1ccccc1)C(=O)N1CCC[C@H]1C(=O)N[C@H](C(=O)C(F)(F)F)C(C)C (HELM PEPTIDE1{[O=C(c1ccccc1)[*:2]].V.P.V.[FC(F)(F)[*:1]]}$$$$V2.0) | 62 | – | -7
8.92 | CC(C)C(NC(=O)C1CCCN1C(=O)[C@@H](NC(=O)c1ccc([N+](=O)[O-])cc1)C(C)C)C(=O)C(F)(F)F (stereo partly specified) | 54 | 4 | –
8.74 | COC(=O)c1ccc(C(=O)N[C@H](C(=O)N2CCCC2C(=O)NC(C(=O)C(F)(F)F)C(C)C)C(C)C)cc1 (stereo partly specified) | 49 | 56 | –
7.85 | CC(C)[C@H](NS(=O)(=O)c1ccccc1)C(=O)N1CCC[C@H]1C(=O)N[C@H](C(=O)C(F)(F)F)C(C)C | 29 | – | -48
9.02 | CC(=O)N(CC(=O)N[C@H](C(=O)N1CCC[C@H]1C(=O)N[C@H](C(=O)C(F)(F)F)C(C)C)C(C)C)Cc1ccccc1 (HELM PEPTIDE1{[ac].[O=C(CN(Cc1ccccc1)[*:1])[*:2]].V.P.V.[FC(F)(F)[*:1]]}$$$$V2.0) | 20 | 36 | –
8.38 | CC(C)C(NC(=O)C1CCCN1C(=O)[C@@H](NC(=O)c1ccc(C(=O)NS(C)(=O)=O)cc1)C(C)C)C(=O)C(F)(F)F (stereo partly specified) | -9 | 43 | –
9.06 | CC(C)C(NC(=O)C1CCCN1C(=O)[C@@H](NC(=O)c1ccc2ccccc2c1)C(C)C)C(=O)C(F)(F)F (stereo partly specified) | 43 | 73 | –
8.27 | CC(C)C(NC(=O)C1CCCN1C(=O)[C@@H](NC(=O)c1ccc(C(=O)NCCN(C)C)cc1)C(C)C)C(=O)C(F)(F)F (stereo partly specified) | 20 | 71 | –
8.21 | CC(C)C(NC(=O)C1CCCN1C(=O)[C@@H](NC(=O)CCC(=O)NS(=O)(=O)c1cccc2ccccc12)C(C)C)C(=O)C(F)(F)F (stereo partly specified) | -80 | – | -212
8.59 | CC(C)[C@H](NC(=O)Nc1ccccc1)C(=O)N1CCC[C@H]1C(=O)N[C@H](C(=O)C(F)(F)F)C(C)C ({NHPh-CO}-Val-Pro-Val-CF3) | -2 | – | -184
8.41 | CC(C)[C@H](NC(=O)c1ccc(O)cc1)C(=O)N1CCC[C@H]1C(=O)N[C@H](C(=O)C(F)(F)F)C(C)C | 35 | 28 | –
8.10 | COc1ccc(S(=O)(=O)N[C@H](C(=O)N2CCCC2C(=O)NC(C(=O)C(F)(F)F)C(C)C)C(C)C)cc1 (stereo partly specified) | 29 | – | -42
8.74 | CC(C)C(NC(=O)C1CCCN1C(=O)[C@@H](NC(=O)/C=C/c1ccc(C(=O)O)cc1)C(C)C)C(=O)C(F)(F)F (stereo partly specified) | 13 | 68 | –
8.70 | CC(C)C(NC(=O)C1CCCN1C(=O)[C@@H](NC(=O)c1ccc(S(C)(=O)=O)cc1)C(C)C)C(=O)C(F)(F)F (stereo partly specified) | -16 | 58 | –
7.96 | CC(C)[C@H](NC(=O)Nc1ccc(F)cc1)C(=O)N1CCC[C@H]1C(=O)N[C@H](C(=O)C(F)(F)F)C(C)C | -3 | 8 | –
7.26 | CC(=O)Nc1ccc(S(=O)(=O)N[C@H](C(=O)N2CCCC2C(=O)NC(C(=O)C(F)(F)F)C(C)C)C(C)C)cc1 (stereo partly specified) | 2 | 32 | –
8.48 | CC(C)C(NC(=O)C1CCCN1C(=O)[C@@H](NS(=O)(=O)c1ccc(Cl)cc1)C(C)C)C(=O)C(F)(F)F (stereo partly specified) | -41 | 7 | –
